Results reported in US20110245081A1, “HERBICIDE COMPOSITION FOR LAWN” (priority 2006, published 2011).
Read-outs that look alike come from different tables or passages of the source.

Tests used:
Type in all cases: in vivo
[1] = test system: Digitaria ciliayis (Retz.) Koeler; experiment: Test Example 2: foliage and soil treatment by mixing, herbicidal effect; conditions: 1080 h
Method: (§1) On a field of Zoysia japonica sectioned to 100 cm×100 cm, seeds of Digitaria ciliayis (Retz.) Koeler, Poa annua L., Polygonum hydropiper L., Euphorbia supine Rafin, Oxalis comiculata L., Cyperus microiria were sown and covered with 0.5 cm soil. Seven days after weeds sowing, treatment was conducted with watering amount of 200 cc/m^2. The prescribed amount of test compound was sprayed with a small spray in the form of the formulation prepared according to the above-mentioned examples or a wettable powder of a single compound diluted with water.
(§2) Herbicidal effect: 100%: complete death 0%: no effect Phytotoxicity: 100%: complete death 0%: no phytotoxicity
(§3) A test section of Zoysia matrella had been prepared in the same method as in the Test Example 1 and on the 28th day after weeds sowing a treatment was conducted with watering amount of 200 cc/m2. The prescribed amount of test compound was sprayed with a small spray in the form of the formulation prepared according to the aforementioned examples or a wettable powder of a single compound diluted with water.
(§4) The herbicidal effect and the degree of phytotoxicity to the lawn were studied 45 days after the agent treatment in the same manner as Test Example 1.

[2] = test system: Polygonum blumei; experiment: as above; conditions: 1080 h
Method: as §1, §2, §3, §4

[3] = test system: Poa annua L.; experiment: as above; conditions: 1080 h
Method: as §1, §2, §3, §4

[4] = test system: Oxalis corniculata L.; experiment: as above; conditions: 1080 h
Method: as §1, §2, §3, §4

[5] = test system: Erigeron canadensis; experiment: as above; conditions: 1080 h
[6] = test system: Chenopodium ficifolium; experiment: Test Example 1: soil treatment by mixing, herbicidal effect; conditions: 1080 h
[7] = test system: Digitaria ciliayis (Retz.) Koeler; experiment: as above; conditions: 1080 h
Method: as §1
(§5) The herbicidal effect and the degree of phytotoxicity to the lawn were studied 45 days after the agent treatment.
as §2
(§6) In the tables, ai means the effective component.

[8] = test system: Poa annua L.; experiment: as above; conditions: 1080 h
Method: as §1, §5, §2, §6

[9] = test system: Oxalis corniculata L.; experiment: as above; conditions: 1080 h
Method: as §1, §5, §2, §6

[10] = test system: Polygonum blumei; experiment: as above; conditions: 1080 h
[11] = test system: Erigeron canadensis; experiment: as above; conditions: 1080 h
[12] = test system: Chenopodium ficifolium; experiment: Test Example 2: foliage and soil treatment by mixing, herbicidal effect; conditions: 1080 h
[13] = test system: Zoysia matrella; conditions: foliage and soil treatment, 45 days
[14] = test system: Zoysia matrella; conditions: soil treatment, 45 days
[15] = foliage and soil treatment, 45 days, Indanofan 1000 g ai/ha
[16] = soil treatment, 45 days, Indanofan 1000 g ai/ha
[17] = foliage and soil treatment, 45 days, Asulam 1500 g ai/ha
[18] = soil treatment, 45 days, Asulam 1500 g ai/ha
[19] = read-out: Herbicidal effect Digitaria ciliayis (Retz.) Koeler
[20] = read-out: Herbicidal effect Polygonum blumei
[21] = read-out: Herbicidal effect Poa annua L.
[22] = read-out: Herbicidal effect Oxalis corniculata L.
[23] = read-out: Herbicidal effect Chenopodium ficifolium
[24] = foliage and soil treatment, 45 days, Ethoxysulfuron 125 g ai/ha
[25] = soil treatment, 45 days, Ethoxysulfuron 125 g ai/ha
[26] = foliage and soil treatment, 45 days, Fentrazamide 1500 g ai/ha
[27] = soil treatment, 45 days, Fentrazamide 1500 g ai/ha
[28] = foliage and soil treatment, 45 days, Oxaziclomefone 150 g ai/ha
[29] = soil treatment, 45 days, Oxaziclomefone 150 g ai/ha

CCC1(CC2(c3cccc(Cl)c3)CO2)C(=O)c2ccccc2C1=O (racemic) [Indanofan, (RS)-2-[2-(3-chlorophenyl)-2,3-epoxypropyl]-2-ethylindan-1,3-dione]
pest or weed control at 1000 g/ha [1, 15]: 30%
pest or weed control at 1000 g/ha [2, 15]: 0%
pest or weed control at 1000 g/ha [3, 15]: 30%
pest or weed control at 1000 g/ha [4, 15]: 0%
pest or weed control at 1000 g/ha [5, 15]: 0%
pest or weed control at 1000 g/ha [6, 16]: 70%
pest or weed control at 1000 g/ha [7, 16]: 0%
pest or weed control at 1000 g/ha [8, 16]: 0%
pest or weed control at 1000 g/ha [9, 16]: 50%
pest or weed control at 1000 g/ha [10, 16]: 60%
pest or weed control at 1000 g/ha [11, 16]: 75%
pest or weed control at 1000 g/ha [12, 15]: 20%

COC(=O)NS(=O)(=O)c1ccc(N)cc1 [Asulam, methyl sulfanyl carbamate]
pest or weed control at 1500 g/ha [1, 17]: 40%
pest or weed control at 1500 g/ha [2, 17]: 70%
pest or weed control at 1500 g/ha [3, 17]: 30%
pest or weed control at 1500 g/ha [4, 17]: 60%
pest or weed control at 1500 g/ha [5, 17]: 60%
pest or weed control at 1500 g/ha [6, 18]: 0%
pest or weed control at 1500 g/ha [7, 18]: 20%
pest or weed control at 1500 g/ha [8, 18]: 20%
pest or weed control at 1500 g/ha [9, 18]: 0%
pest or weed control at 1500 g/ha [10, 18]: 0%
pest or weed control at 1500 g/ha [11, 18]: 0%
pest or weed control at 1500 g/ha [12, 17]: 60%

CCN(CC)C(=O)n1cnc(S(=O)(=O)c2c(C)cc(C)cc2C)n1 [Cafenstrole, N,N-diethyl-3-meticylsulfonyl-1H-1,2,4-triazol-1-carboxamide]
pest or weed control at 2000 g/ha [1, 19]: 40%
pest or weed control at 2000 g/ha [2, 20]: 0%
pest or weed control at 2000 g/ha [3, 21]: 30%
pest or weed control at 2000 g/ha [4, 22]: 0%
Zoysia matrella phytotoxicity ([13]; Cafenstrole 2000 g ai/ha): 0%
pest or weed control at 2000 g/ha ([5]; read-out: Herbicidal effect Erigeron canadensis): 0%
pest or weed control at 2000 g/ha [6, 23]: 70%
pest or weed control at 2000 g/ha [7, 19]: 0%
pest or weed control at 2000 g/ha [8, 21]: 0%
pest or weed control at 2000 g/ha [9, 22]: 50%
pest or weed control at 2000 g/ha [10, 20]: 60%
pest or weed control at 2000 g/ha ([11]; soil, read-out: Herbicidal effect Erigeron canadensis): 75%
pest or weed control at 2000 g/ha [12, 23]: 20%
Zoysia matrella phytotoxicity ([14]; Cafenstrole 2000 g ai/ha): 0%

CCOc1ccccc1OS(=O)(=O)NC(=O)Nc1nc(OC)cc(OC)n1 [Ethoxysulfuron, 1-(4,6-dimethoxypyrimidin-2-yl)-3-(2-ethoxyphenoxysulfonyl)urea]
pest or weed control at 125 g/ha [1, 24]: 0%
pest or weed control at 125 g/ha [2, 24]: 40%
pest or weed control at 125 g/ha [3, 24]: 0%
pest or weed control at 125 g/ha [4, 24]: 30%
pest or weed control at 125 g/ha [5, 24]: 60%
pest or weed control at 125 g/ha [6, 25]: 70%
pest or weed control at 125 g/ha [7, 25]: 0%
pest or weed control at 125 g/ha [8, 25]: 0%
pest or weed control at 125 g/ha [9, 25]: 50%
pest or weed control at 125 g/ha [10, 25]: 60%
pest or weed control at 125 g/ha [11, 25]: 75%
pest or weed control at 125 g/ha [12, 24]: 50%

CCN(C(=O)n1nnn(-c2ccccc2Cl)c1=O)C1CCCCC1 [Fentrazamide, 4-(2-chlorophenyl)-N-cyclohexyl-N-ethyl-4,5-dihydro-5-oxo-1H-terazol-1-carboxamide]
pest or weed control at 1500 g/ha [1, 26]: 40%
pest or weed control at 1500 g/ha [2, 26]: 0%
pest or weed control at 1500 g/ha [3, 26]: 30%
pest or weed control at 1500 g/ha [4, 26]: 0%
Zoysia matrella phytotoxicity ([13]; Fentrazamide 1500 g ai/ha): 0%
pest or weed control at 1500 g/ha [5, 26]: 0%
pest or weed control at 1500 g/ha [6, 27]: 20%
pest or weed control at 1500 g/ha [7, 27]: 90%
pest or weed control at 1500 g/ha [8, 27]: 80%
pest or weed control at 1500 g/ha [9, 27]: 0%
pest or weed control at 1500 g/ha [10, 27]: 0%
pest or weed control at 1500 g/ha [11, 27]: 0%
pest or weed control at 1500 g/ha [12, 26]: 0%
Zoysia matrella phytotoxicity ([14]; Fentrazamide 1500 g ai/ha): 0%

CC1=C(c2ccccc2)C(=O)N(C(C)(C)c2cc(Cl)cc(Cl)c2)CO1 [Oxaziclomefone, 3-[1-(3,5-dichlorophenyl)-1-methylethyl]-3,4-dihydro-6-methyl-5-phenyl-2H-1,3-oxazin-4-one]
pest or weed control at 150 g/ha [1, 28]: 30%
pest or weed control at 150 g/ha [2, 28]: 0%
pest or weed control at 150 g/ha [3, 28]: 30%
pest or weed control at 150 g/ha [4, 28]: 0%
pest or weed control at 150 g/ha [5, 28]: 0%
pest or weed control at 150 g/ha [6, 29]: 0%
pest or weed control at 150 g/ha [7, 29]: 90%
pest or weed control at 150 g/ha [8, 29]: 90%
pest or weed control at 150 g/ha [9, 29]: 0%
pest or weed control at 150 g/ha [10, 29]: 0%
pest or weed control at 150 g/ha [11, 29]: 0%
pest or weed control at 150 g/ha [12, 28]: 0%
